Laboratory results published in ChEMBL document CHEMBL1143041, “On the cytotoxicity and status of oxidative stress of two novel synthesized tri-aza macrocyclic diamides as studied in the V79 cell lines” (Bioorg Med Chem, 2007).

Key:
V79 [1] = assay: Increase in glutathione peroxidase activity in V79 cells at 8 mM after 24 hrs; format: cell-based; settings: Cricetulus griseus
V79 [2] = assay: Effect on malondialdehyde level in V79 cells at 0.5 mM after 24 hrs; format: functional, Cricetulus griseus
V79 [3] = assay: Effect on malondialdehyde level in V79 cells at 1 mM after 24 hrs; format: functional, Cricetulus griseus
V79 [4] = assay: Effect on malondialdehyde level in V79 cells at 2 mM after 24 hrs; format: functional, Cricetulus griseus
[5] = Cytotoxicity against V79 cells assessed as viability at 8 mM after 24 hrs by MTT assay; format: cell-based, Cricetulus griseus; settings: chinese hamster, read-out: Activity
V79 [6] = assay: Stimulation of ROS generation in V79 cells; format: functional, cell-based; settings: Cricetulus griseus
V79 [7] = assay: Effect on V79 cells assessed as viable cells at 2 mM; format: functional; settings: Cricetulus griseus, read-out: Activity
V79 [8] = assay: Effect on V79 cells assessed as viable cells at 4 mM; format: functional; settings: Cricetulus griseus, read-out: Activity
V79 [9] = assay: Effect on V79 cells assessed as apoptotic cells at 2 mM; format: functional, Cricetulus griseus
V79 [10] = assay: Effect on V79 cells assessed as apoptotic cells at 4 mM; format: functional, Cricetulus griseus
V79 [11] = assay: Effect on V79 cells assessed as necrotic cells at 2 mM; format: functional, Cricetulus griseus
V79 [12] = assay: Effect on V79 cells assessed as necrotic cells at 4 mM; format: functional, Cricetulus griseus
V79 [13] = assay: Effect on V79 cells assessed as apoptotic cells at 2 mM in presence of 30 uM alpha-tocopherol; format: functional, Cricetulus griseus
V79 [14] = assay: Effect on V79 cells assessed as apoptotic cells at 4 mM in presence of 30 uM alpha-tocopherol; format: functional, Cricetulus griseus
V79 [15] = assay: Effect on V79 cells assessed as viable cells at 2 mM in presence of 30 uM alpha-tocopherol; format: functional, Cricetulus griseus
V79 [16] = assay: Effect on V79 cells assessed as viable cells at 4 mM in presence of 30 uM alpha-tocopherol; format: functional, Cricetulus griseus
V79 [17] = assay: Effect on superoxide dismutase activity in V79 cells at 0.5 mM after 24 hrs; format: cell-based; settings: Cricetulus griseus
V79 [18] = assay: Increase in superoxide dismutase activity in V79 cells at 1 mM after 24 hrs; format: cell-based; settings: Cricetulus griseus
V79 [19] = assay: Increase in superoxide dismutase activity in V79 cells at 2 mM after 24 hrs; format: cell-based; settings: Cricetulus griseus
V79 [20] = assay: Increase in superoxide dismutase activity in V79 cells at 4 mM after 24 hrs; format: cell-based; settings: Cricetulus griseus
V79 [21] = assay: Increase in superoxide dismutase activity in V79 cells at 8 mM after 24 hrs; format: cell-based; settings: Cricetulus griseus
V79 [22] = assay: Effect on catalase activity in V79 cells at 0.5 mM after 24 hrs; format: cell-based; settings: Cricetulus griseus
V79 [23] = assay: Increase in catalase activity in V79 cells at 1 mM after 24 hrs; format: cell-based; settings: Cricetulus griseus
V79 [24] = assay: Increase in catalase activity in V79 cells at 2 mM after 24 hrs; format: cell-based; settings: Cricetulus griseus
V79 [25] = assay: Increase in catalase activity in V79 cells at 4 mM after 24 hrs; format: cell-based; settings: Cricetulus griseus
V79 [26] = assay: Increase in catalase activity in V79 cells at 8 mM after 24 hrs; format: cell-based; settings: Cricetulus griseus
V79 [27] = assay: Effect on glutathione peroxidase activity in V79 cells at 0.5 mM after 24 hrs; format: cell-based; settings: Cricetulus griseus
V79 [28] = assay: Increase in glutathione peroxidase activity in V79 cells at 1 mM after 24 hrs; format: cell-based; settings: Cricetulus griseus
V79 [29] = assay: Increase in glutathione peroxidase activity in V79 cells at 2 mM after 24 hrs; format: cell-based; settings: Cricetulus griseus
V79 [30] = assay: Increase in glutathione peroxidase activity in V79 cells at 4 mM after 24 hrs; format: cell-based; settings: Cricetulus griseus
V79 [31] = assay: Effect on malondialdehyde level in V79 cells at 4 mM after 24 hrs; format: functional, Cricetulus griseus
V79 [32] = assay: Effect on malondialdehyde level in V79 cells at 8 mM after 24 hrs; format: functional, Cricetulus griseus
V79 [33] = assay: Effect on dityrosine level in V79 cells at 0.5 mM after 24 hrs; format: functional, Cricetulus griseus
V79 [34] = assay: Effect on dityrosine level in V79 cells at 1 mM after 24 hrs; format: functional, Cricetulus griseus
V79 [35] = assay: Effect on dityrosine level in V79 cells at 2 mM after 24 hrs; format: functional, Cricetulus griseus
V79 [36] = assay: Effect on dityrosine level in V79 cells at 4 mM after 24 hrs; format: functional, Cricetulus griseus
V79 [37] = assay: Effect on dityrosine level in V79 cells at 8 mM after 24 hrs; format: functional, Cricetulus griseus
V79 [38] = assay: Effect on 8-hydroxy-deoxyguanosine level in V79 cells at 0.5 mM after 24 hrs; format: functional, Cricetulus griseus
V79 [39] = assay: Effect on 8-hydroxy-deoxyguanosine level in V79 cells at 1 mM after 24 hrs; format: functional, Cricetulus griseus
V79 [40] = assay: Effect on 8-hydroxy-deoxyguanosine level in V79 cells at 2 mM after 24 hrs; format: functional, Cricetulus griseus
V79 [41] = assay: Effect on 8-hydroxy-deoxyguanosine level in V79 cells at 4 mM after 24 hrs; format: functional, Cricetulus griseus
V79 [42] = assay: Effect on 8-hydroxy-deoxyguanosine level in V79 cells at 8 mM after 24 hrs; format: functional, Cricetulus griseus
V79 [43] = assay: Effect on glutathione peroxidase activity in V79 cells at 8 mM after 24 hrs in presence of 30 uM alpha-tocopherol; format: cell-based; settings: Cricetulus griseus
V79 [44] = assay: Effect on superoxide dismutase activity in V79 cells at 8 mM after 24 hrs in presence of 30 uM alpha-tocopherol; format: cell-based; settings: Cricetulus griseus
V79 [45] = assay: Effect on catalase activity in V79 cells at 8 mM after 24 hrs in presence of 30uM alpha-tocopherol; format: cell-based; settings: Cricetulus griseus
V79 [46] = assay: Effect on malondialdehyde level in V79 cells at 8 mM after 24 hrs in presence of 30 uM alpha-tocopherol; format: functional, Cricetulus griseus
V79 [47] = assay: Effect on dityrosine level in V79 cells at 8 mM after 24 hrs in presence of 30 uM alpha-tocopherol; format: functional, Cricetulus griseus
V79 [48] = assay: Effect on 8-hydroxy-deoxyguanosine level in V79 cells at 8 mM after 24 hrs in presence of 30 uM alpha-tocopherol; format: functional, Cricetulus griseus
V79 [49] = assay: Effect on glutathione peroxidase activity in V79 cells at 30 uM after 24 hrs; format: cell-based; settings: Cricetulus griseus
V79 [50] = assay: Effect on superoxide dismutase activity in V79 cells at 30 uM after 24 hrs; format: cell-based; settings: Cricetulus griseus
V79 [51] = assay: Effect on catalase activity in V79 cells at 30 uM after 24 hrs; format: cell-based; settings: Cricetulus griseus
V79 [52] = assay: Effect on malondialdehyde level in V79 cells at 30 uM after 24 hrs; format: functional, Cricetulus griseus
V79 [53] = assay: Effect on dityrosine level in V79 cells at 30 uM after 24 hrs; format: functional, Cricetulus griseus
V79 [54] = assay: Effect on 8-hydroxy-deoxyguanosine level in V79 cells at 30 uM after 24 hrs; format: functional, Cricetulus griseus

## Cc1ccc2c(c1)[S+]([O-])c1cc(C)ccc1OCC(=O)NCCNCCNC(=O)CO2
V79 [1]
  Activity: 41.1 nmol/min/mg
V79 [2]
  Activity: 8.72 nM/mg
V79 [3]
  Activity: 16.53 nM/mg
V79 [4]
  Activity: 25.16 nM/mg
[5]
  viability at 24 h, 8000 µM: 24%
V79 [6]
  Activity: Dose-dependent effect
V79 [7]
  viability at 2000 µM: 54.4%
V79 [8]
  viability at 4000 µM: 41.2%
V79 [9]
  Activity: 40.2%
V79 [10]
  Activity: 51.4%
V79 [11]
  Activity: 4.6%
V79 [12]
  Activity: 6.3%
V79 [13]
  Activity: 28.5%
V79 [14]
  Activity: 32.7%
V79 [15]
  Activity: 71.2%
V79 [16]
  Activity: 52.6%
V79 [17]
  Activity: 14.4 U/mg
V79 [18]
  Activity: 22.1 U/mg
V79 [19]
  Activity: 36.4 U/mg
V79 [20]
  Activity: 48.7 U/mg
V79 [21]
  Activity: 56.4 U/mg
V79 [22]
  Activity (microM/min/mg): 6.81
V79 [23]
  Activity (microM/min/mg): 9.71
V79 [24]
  Activity (microM/min/mg): 15.3
V79 [25]
  Activity (microM/min/mg): 27.2
V79 [26]
  Activity (microM/min/mg): 35.7
V79 [27]
  Activity: 16.6 nmol/min/mg
V79 [28]
  Activity: 22.1 nmol/min/mg
V79 [29]
  Activity: 26.3 nmol/min/mg
V79 [30]
  Activity: 33.4 nmol/min/mg
V79 [31]
  Activity: 36.63 nM/mg
V79 [32]
  Activity: 55.12 nM/mg
V79 [33]
  Activity: 0.54 nM/mg
V79 [34]
  Activity: 0.75 nM/mg
V79 [35]
  Activity: 1.61 nM/mg
V79 [36]
  Activity: 3.88 nM/mg
V79 [37]
  Activity: 6.41 nM/mg
V79 [38]
  Activity: 4.7
V79 [39]
  Activity: 5.5
V79 [40]
  Activity: 7.4
V79 [41]
  Activity: 8.5
V79 [42]
  Activity: 9.1
V79 [43]
  Activity: 22.4 nmol/min/mg
V79 [44]
  Activity: 23.5 U/mg
V79 [45]
  Activity (microM/min/mg): 10.2
V79 [46]
  Activity: 17.63 nM/mg
V79 [47]
  Activity: 2.21 nM/mg
V79 [48]
  Activity: 6.4

## Cc1ccc2c(c1)Sc1cc(C)ccc1OCC(=O)NCCNCCNC(=O)CO2
V79 [1]
  Activity: 47.6 nmol/min/mg
V79 [2]
  Activity: 11.17 nM/mg
V79 [3]
  Activity: 13.77 nM/mg
V79 [4]
  Activity: 21.46 nM/mg
V79 [6]
  Activity: Dose-dependent effect
V79 [7]
  viability at 2000 µM: 71.4%
V79 [8]
  viability at 4000 µM: 58.2%
V79 [9]
  Activity: 25.1%
V79 [10]
  Activity: 37.3%
V79 [11]
  Activity: 2.6%
V79 [12]
  Activity: 4.1%
V79 [13]
  Activity: 17.4%
V79 [14]
  Activity: 22.6%
V79 [15]
  Activity: 80.5%
V79 [16]
  Activity: 69.1%
V79 [17]
  Activity: 18.8 U/mg
V79 [18]
  Activity: 21.3 U/mg
V79 [19]
  Activity: 31.2 U/mg
V79 [20]
  Activity: 40.1 U/mg
V79 [21]
  Activity: 49.2 U/mg
V79 [22]
  Activity (microM/min/mg): 5.48
V79 [23]
  Activity (microM/min/mg): 8.47
V79 [24]
  Activity (microM/min/mg): 12.2
V79 [25]
  Activity (microM/min/mg): 22.4
V79 [26]
  Activity (microM/min/mg): 27.2
V79 [27]
  Activity: 18.6 nmol/min/mg
V79 [28]
  Activity: 23.3 nmol/min/mg
V79 [29]
  Activity: 30.6 nmol/min/mg
V79 [30]
  Activity: 37.5 nmol/min/mg
V79 [31]
  Activity: 35.691 nM/mg
V79 [32]
  Activity: 52.55 nM/mg
V79 [33]
  Activity: 0.74 nM/mg
V79 [34]
  Activity: 1.19 nM/mg
V79 [35]
  Activity: 2.45 nM/mg
V79 [36]
  Activity: 4.31 nM/mg
V79 [37]
  Activity: 8.27 nM/mg
V79 [38]
  Activity: 4.4
V79 [39]
  Activity: 5
V79 [40]
  Activity: 5.8
V79 [41]
  Activity: 7.3
V79 [42]
  Activity: 6.9
V79 [43]
  Activity: 20.8 nmol/min/mg
V79 [44]
  Activity: 21.8 U/mg
V79 [45]
  Activity (microM/min/mg): 8.77
V79 [46]
  Activity: 15.01 nM/mg
V79 [47]
  Activity: 1.43 nM/mg
V79 [48]
  Activity: 5.76

## Cc1c(C)c2c(c(C)c1O)CC[C@@](C)(CCC[C@H](C)CCC[C@H](C)CCCC(C)C)O2 [ALPHA-TOCOPHEROL]
V79 [49]
  Activity: 14.1 nmol/min/mg
V79 [50]
  Activity: 13.2 U/mg
V79 [51]
  Activity (microM/min/mg): 4.5
V79 [52]
  Activity: 7.51 nM/mg
V79 [53]
  Activity: 0.42 nM/mg
V79 [54]
  Activity: 3.51
